# Test results taken from US4701448A, “Metal salt of organic phosphate and an antihyperlipemic agent containing the same” (Asahi Denka Kogyo Kabushiki Kaisha, priority 1985, dated 1987).
# Counter-ions that a name gives are not always drawn.
# System: serum cholesterol
# Experiment: Serum cholesterol lowering activity, oral, rabbit, 5 successive days
# Assay type: in vivo
# Conditions: two times a day, 5 days, 1.5 mg/kg/day
# Method: (1) Serum cholesterol lowering activity the metal salt of organic phosphate according to the present invention was orally administered to a rabbit (body weight of about 3 Kg) two times a day (at 9:00 a.m. and 4:00 p.m.) for 5 successive days. After 5 days, blood was sampled and the total cholesterol value in serum was measured in a conventional manner.
row,Compound,Total Serum cholesterol lowering rate [%]
1,"CCC(C)C(=O)OC1CCC=C2C=CC(C)C(CCC(CC(O)CC(=O)O)OP(=O)(O)O)C21 (stereo not drawn) [CB3A-3K salt, Tripotassium salt of CB3A]",19.4
2,"CCC(C)C(=O)OC1CC(C)C=C2C=CC(C)C(CCC(CC(O)CC(=O)O)OP(=O)(O)O)C21 (stereo not drawn) [CK3A, reference compound]",9.7
3,"CCC(C)C(=O)OC1CCC=C2C=CC(C)C(CCC(CC(O)CC(=O)OC)OP(=O)(O)O)C21 (stereo not drawn) [CB3A methyl ester-2K salt, Dipotassium salt of CB3A methyl ester]",19.5
4,"CCC(C)C(=O)OC1CC(C)C=C2C=CC(C)C(CCC(CC(O)CC(=O)O)OP(=O)(O)O)C21 (stereo not drawn) [CK3A-3K salt, Tripotassium salt of CK3A]",18.9
5,"CCC(C)C(=O)OC1CCC=C2C=CC(C)C(CCC(CC(O)CC(=O)O)OP(=O)(O)O)C21 (stereo not drawn) [CB3A-1K salt, Monopotassium salt of CB3A]",19.6
6,CCC(C)C(=O)OC1CC(C)C=C2C=CC(C)C(CCC(CC(O)CC(=O)O)OP(=O)(O)O)C21 (stereo not drawn) [CK3A-1.5Mg salt],22.1
7,"CCC(C)C(=O)OC1CCC=C2C=CC(C)C(CCC(CC(O)CC(=O)O)OP(=O)(O)O)C21 (stereo not drawn) [CB3A-Al salt, Aluminum salt of CB3A]",24.2
8,"CCC(C)C(=O)OC1CC(C)C=C2C=CC(C)C(CCC(CC(O)CC(=O)O)OP(=O)(O)O)C21 (stereo not drawn) [CK3A-Al salt, Aluminum salt of CK3A]",23.4

# Same assay, conditions: two times a day, 5 days, 6 mg/kg/day
row,Compound,Total Serum cholesterol lowering rate [%]
1,"CCC(C)C(=O)OC1CCC=C2C=CC(C)C(CCC(CC(O)CC(=O)O)OP(=O)(O)O)C21 (stereo not drawn) [CB3A-3K salt, Tripotassium salt of CB3A]",33.9
2,"CCC(C)C(=O)OC1CC(C)C=C2C=CC(C)C(CCC(CC(O)CC(=O)O)OP(=O)(O)O)C21 (stereo not drawn) [CK3A, reference compound]",24.4
3,"CCC(C)C(=O)OC1CCC=C2C=CC(C)C(CCC(CC(O)CC(=O)OC)OP(=O)(O)O)C21 (stereo not drawn) [CB3A methyl ester-2K salt, Dipotassium salt of CB3A methyl ester]",33.8
4,"CCC(C)C(=O)OC1CC(C)C=C2C=CC(C)C(CCC(CC(O)CC(=O)O)OP(=O)(O)O)C21 (stereo not drawn) [CK3A-3K salt, Tripotassium salt of CK3A]",34.7
5,"CCC(C)C(=O)OC1CCC=C2C=CC(C)C(CCC(CC(O)CC(=O)O)OP(=O)(O)O)C21 (stereo not drawn) [CB3A-1K salt, Monopotassium salt of CB3A]",33.7
6,CCC(C)C(=O)OC1CC(C)C=C2C=CC(C)C(CCC(CC(O)CC(=O)O)OP(=O)(O)O)C21 (stereo not drawn) [CK3A-1.5Mg salt],36.3
7,"CCC(C)C(=O)OC1CCC=C2C=CC(C)C(CCC(CC(O)CC(=O)O)OP(=O)(O)O)C21 (stereo not drawn) [CB3A-Al salt, Aluminum salt of CB3A]",41.6
8,"CCC(C)C(=O)OC1CC(C)C=C2C=CC(C)C(CCC(CC(O)CC(=O)O)OP(=O)(O)O)C21 (stereo not drawn) [CK3A-Al salt, Aluminum salt of CK3A]",41.6

# System: not listed separately
# Experiment: Acute toxicity, mouse
# Assay type: in vivo
# Conditions: in vivo, ip, intraperitoneal injection
# Text: (§1) The acute toxicity of the metal salt of CB3A and of CK3A was examined by orally or peritoneally administrating an aqueous solution or dispersion thereof the results are shown in Table 2.
# (§2) a . . . per os (oral administration)
# (§3) b . . . intraperitoneal injection
row,Compound,LD50 [mg/kg]
1,"CCC(C)C(=O)OC1CCC=C2C=CC(C)C(CCC(CC(O)CC(=O)O)OP(=O)(O)O)C21 (stereo not drawn) [CB3A-3K salt, Tripotassium salt of CB3A]",> 500
2,"CCC(C)C(=O)OC1CC(C)C=C2C=CC(C)C(CCC(CC(O)CC(=O)O)OP(=O)(O)O)C21 (stereo not drawn) [CK3A-3K salt, Tripotassium salt of CK3A]",> 500

# Same assay, conditions: in vivo, per os (oral administration)
row,Compound,LD50 [mg/kg]
1,"CCC(C)C(=O)OC1CCC=C2C=CC(C)C(CCC(CC(O)CC(=O)O)OP(=O)(O)O)C21 (stereo not drawn) [CB3A-3K salt, Tripotassium salt of CB3A]",> 2000
2,"CCC(C)C(=O)OC1CC(C)C=C2C=CC(C)C(CCC(CC(O)CC(=O)O)OP(=O)(O)O)C21 (stereo not drawn) [CK3A-3K salt, Tripotassium salt of CK3A]",> 2000

# System: mouse
# Experiment: Acute toxicity, mouse
# Assay type: in vivo
# Conditions: intraperitoneal injection
# Text: as §1, §2, §3
row,Compound,LD50 [mg/kg]
1,"CCC(C)C(=O)OC1CC(C)C=C2C=CC(C)C(CCC(CC(O)CC(=O)O)OP(=O)(O)O)C21 (stereo not drawn) [CK3A, reference compound]",> 500
2,"CCC(C)C(=O)OC1CCC=C2C=CC(C)C(CCC(CC(O)CC(=O)O)OP(=O)(O)O)C21 (stereo not drawn) [CB3A-Al salt, Aluminum salt of CB3A]",> 500
3,"CCC(C)C(=O)OC1CC(C)C=C2C=CC(C)C(CCC(CC(O)CC(=O)O)OP(=O)(O)O)C21 (stereo not drawn) [CK3A-Al salt, Aluminum salt of CK3A]",> 500

# Same assay, conditions: per os (oral administration)
row,Compound,LD50 [mg/kg]
1,"CCC(C)C(=O)OC1CC(C)C=C2C=CC(C)C(CCC(CC(O)CC(=O)O)OP(=O)(O)O)C21 (stereo not drawn) [CK3A, reference compound]",> 2000
2,"CCC(C)C(=O)OC1CCC=C2C=CC(C)C(CCC(CC(O)CC(=O)O)OP(=O)(O)O)C21 (stereo not drawn) [CB3A-Al salt, Aluminum salt of CB3A]",> 2000
3,"CCC(C)C(=O)OC1CC(C)C=C2C=CC(C)C(CCC(CC(O)CC(=O)O)OP(=O)(O)O)C21 (stereo not drawn) [CK3A-Al salt, Aluminum salt of CK3A]",> 2000

# System: not listed separately
# Experiment: Acute toxicity, rat
# Assay type: in vivo
# Conditions: in vivo, ip, intraperitoneal injection
# Text: as §1, §2, §3
row,Compound,LD50 [mg/kg]
1,"CCC(C)C(=O)OC1CCC=C2C=CC(C)C(CCC(CC(O)CC(=O)O)OP(=O)(O)O)C21 (stereo not drawn) [CB3A-3K salt, Tripotassium salt of CB3A]",> 500
2,"CCC(C)C(=O)OC1CC(C)C=C2C=CC(C)C(CCC(CC(O)CC(=O)O)OP(=O)(O)O)C21 (stereo not drawn) [CK3A-3K salt, Tripotassium salt of CK3A]",> 500

# Same assay, conditions: in vivo, per os (oral administration)
row,Compound,LD50 [mg/kg]
1,"CCC(C)C(=O)OC1CCC=C2C=CC(C)C(CCC(CC(O)CC(=O)O)OP(=O)(O)O)C21 (stereo not drawn) [CB3A-3K salt, Tripotassium salt of CB3A]",> 2000
2,"CCC(C)C(=O)OC1CC(C)C=C2C=CC(C)C(CCC(CC(O)CC(=O)O)OP(=O)(O)O)C21 (stereo not drawn) [CK3A-3K salt, Tripotassium salt of CK3A]",> 2000

# System: rat
# Experiment: Acute toxicity, rat
# Assay type: in vivo
# Conditions: intraperitoneal injection
# Text: as §1, §2, §3
row,Compound,LD50 [mg/kg]
1,"CCC(C)C(=O)OC1CC(C)C=C2C=CC(C)C(CCC(CC(O)CC(=O)O)OP(=O)(O)O)C21 (stereo not drawn) [CK3A, reference compound]",> 500
2,"CCC(C)C(=O)OC1CCC=C2C=CC(C)C(CCC(CC(O)CC(=O)O)OP(=O)(O)O)C21 (stereo not drawn) [CB3A-Al salt, Aluminum salt of CB3A]",> 500
3,"CCC(C)C(=O)OC1CC(C)C=C2C=CC(C)C(CCC(CC(O)CC(=O)O)OP(=O)(O)O)C21 (stereo not drawn) [CK3A-Al salt, Aluminum salt of CK3A]",> 500

# Same assay, conditions: per os (oral administration)
row,Compound,LD50 [mg/kg]
1,"CCC(C)C(=O)OC1CC(C)C=C2C=CC(C)C(CCC(CC(O)CC(=O)O)OP(=O)(O)O)C21 (stereo not drawn) [CK3A, reference compound]",> 2000
2,"CCC(C)C(=O)OC1CCC=C2C=CC(C)C(CCC(CC(O)CC(=O)O)OP(=O)(O)O)C21 (stereo not drawn) [CB3A-Al salt, Aluminum salt of CB3A]",> 2000
3,"CCC(C)C(=O)OC1CC(C)C=C2C=CC(C)C(CCC(CC(O)CC(=O)O)OP(=O)(O)O)C21 (stereo not drawn) [CK3A-Al salt, Aluminum salt of CK3A]",> 2000

# System: not listed separately
# Experiment: Stability, 5 weeks at 45° C. and humidity of 80% (HPLC remaining rate)
# Assay type: physicochemical
# Conditions: after 5 weeks, humidity of 80%, 50400 min
# Method: One gram each of CB3A, CK3A and various metal salts thereof was placed in a beaker and the beaker was allowed to stand for 5 weeks in a constant temperature and humidity bath controlled at a temperature of 45° C. and a humidity of 80%. After 5 weeks, a remaining rate of the compound was analyzed quantitatively with a high performance liquid chromatography "Tri rotar" manufactured by Nippon Bunko K. K. (Japan).
# A0 = initial amount of the compound prior to standing in the constan
# temperature and humidity bath
# A1 = final amount of the compound after 5 weeks
row,Compound,Remaining rate [%]
1,CCC(C)C(=O)OC1CCC=C2C=CC(C)C(CCC(CC(O)CC(=O)O)OP(=O)(O)O)C21 (stereo not drawn) [CB3A-1Na salt],74
2,CCC(C)C(=O)OC1CCC=C2C=CC(C)C(CCC(CC(O)CC(=O)O)OP(=O)(O)O)C21 (stereo not drawn) [CB3A-2Na salt],78
3,"CCC(C)C(=O)OC1CC(C)C=C2C=CC(C)C(CCC(CC(O)CC(=O)O)OP(=O)(O)O)C21 (stereo not drawn) [CK3A, reference compound]",13
4,"CCC(C)C(=O)OC1CC(C)C=C2C=CC(C)C(CCC(CC(O)CC(=O)O)OP(=O)(O)O)C21 (stereo not drawn) [CK3A-3K salt, Tripotassium salt of CK3A]",85
5,"CCC(C)C(=O)OC1CCC=C2C=CC(C)C(CCC(CC(O)CC(=O)O)OP(=O)(O)O)C21 (stereo not drawn) [CB3A-Al salt, Aluminum salt of CB3A]",98
6,"CCC(C)C(=O)OC1CC(C)C=C2C=CC(C)C(CCC(CC(O)CC(=O)O)OP(=O)(O)O)C21 (stereo not drawn) [CK3A-Al salt, Aluminum salt of CK3A]",98

# Same assay, conditions: solid, 80% humidity, after 5 weeks, humidity of 80%
row,remaining at 840 h [%],Compound
1,84,"CCC(C)C(=O)OC1CCC=C2C=CC(C)C(CCC(CC(O)CC(=O)OC)OP(=O)(O)O)C21 (stereo not drawn) [CB3A methyl ester-2K salt, Dipotassium salt of CB3A methyl ester]"

# System: not listed separately
# Experiment: Water solubility, hygroscopic property and stability (statements in words)
# Assay type: physicochemical
# Conditions: not given
Compound,stability,water solubility,hygroscopic property
"CCC(C)C(=O)OC1CCC=C2C=CC(C)C(CCC(CC(O)CC(=O)O)OP(=O)(O)O)C21 (stereo not drawn) [CB3A-3K salt, Tripotassium salt of CB3A]",excellent,excellent,
"CCC(C)C(=O)OC1CC(C)C=C2C=CC(C)C(CCC(CC(O)CC(=O)O)OP(=O)(O)O)C21 (stereo not drawn) [CK3A, reference compound]",unstable,,
"CCC(C)C(=O)OC1CCC=C2C=CC(C)C(CCC(CC(O)CC(=O)OC)OP(=O)(O)O)C21 (stereo not drawn) [CB3A methyl ester-2K salt, Dipotassium salt of CB3A methyl ester]",excellent,excellent,
"CCC(C)C(=O)OC1CC(C)C=C2C=CC(C)C(CCC(CC(O)CC(=O)O)OP(=O)(O)O)C21 (stereo not drawn) [CK3A-3K salt, Tripotassium salt of CK3A]",excellent,excellent,
"CCC(C)C(=O)OC1CCC=C2C=CC(C)C(CCC(CC(O)CC(=O)O)OP(=O)(O)O)C21 (stereo not drawn) [CB3A-1K salt, Monopotassium salt of CB3A]",excellent,excellent,
"CCC(C)C(=O)OC1CCC=C2C=CC(C)C(CCC(CC(O)CC(=O)O)OP(=O)(O)O)C21 (stereo not drawn) [CB3A-Al salt, Aluminum salt of CB3A]",particularly excellent,,no hydroscopic property
"CCC(C)C(=O)OC1CC(C)C=C2C=CC(C)C(CCC(CC(O)CC(=O)O)OP(=O)(O)O)C21 (stereo not drawn) [CK3A-Al salt, Aluminum salt of CK3A]",particularly excellent,,no hygroscopic property

# System: not listed separately
# Experiment: Absorbability and effect (statement in words)
# Conditions: not given
row,Compound,absorbability and effect
1,"CCC(C)C(=O)OC1CC(C)C=C2C=CC(C)C(CCC(CC(O)CC(=O)O)OP(=O)(O)O)C21 (stereo not drawn) [CK3A, reference compound]",unsatisfactory

# System: synthesis of cholesterol
# Experiment: not given
# Conditions: in words; Japanese Patent Application No. 165490/1983, J. Antibiotics 38, 328-332 (1985); cited from earlier work
row,Compound,activity of inhibiting the synthesis of cholesterol
1,CCC(C)C(=O)OC1CCC=C2C=CC(C)C(CCC(CC(O)CC(=O)OC)OP(=O)(O)O)C21 (stereo not drawn) [CB3A methyl ester],strong activity of inhibiting the synthesis of cholesterol
2,"CCC(C)C(=O)OC1CC(C)C=C2C=CC(C)C(CCC(CC(O)CC(=O)O)OP(=O)(O)O)C21 (stereo not drawn) [CK3A, reference compound]",strong activity of inhibiting the synthesis of cholesterol
3,CCC(C)C(=O)OC1CC(C)C=C2C=CC(C)C(CCC(CC(O)CC(=O)OC)OP(=O)(O)O)C21 (stereo not drawn) [CK3A methyl ester],strong activity of inhibiting the synthesis of cholesterol
